Reference: ChEMBL document CHEMBL3046512, “Flubendiamide, a Novel Insecticide Highly Active against Lepidopterous Insect Pests” (J Pestic Sci, 2005)
Active and inactive are the calls of the source. The rule behind the calls is not given here.

What was measured:
Plutella xylostella [1] = experiment: Insecticidal activity against third-instar larvae of Plutella xylostella (diamondback moth) in cabbage leaf disk after 4 to 7 days by leaf dipping method; type: functional, organism-based
Spodoptera litura [2] = experiment: Insecticidal activity against fifth-instar larvae of Spodoptera litura in cabbage leaf disk after 4 to 7 days by leaf dipping method; type: functional, organism-based
Spodoptera litura [3] = experiment: Insecticidal activity against sixth-instar larvae of Spodoptera litura assessed as sustained body contraction at 2.4 ug/larvae after 24 hr; type: functional, organism-based
Plutella xylostella [4] = experiment: Insecticidal activity against third-instar larvae of synthetic pyrethroid-resistant Plutella xylostella (diamondback moth) in cabbage leaf disk after 4 to 7 days by leaf dipping method; type: functional, organism-based
Aphidius colemani = experiment: Toxicity in adlult of Aphidius colemani after 2 days by dry film method; type: organism-based; conditions: in vivo, 48 h
Pieris rapae crucivora = experiment: Insecticidal activity against second to third-instar larvae of Pieris rapae crucivora; type: functional, organism-based
Agrotis segetum = experiment: Insecticidal activity against two to third-instar larvae of Agrotis segetum in cabbage leaf; type: functional, organism-based
Helicoverpa armigera = experiment: Insecticidal activity against Helicoverpa armigera; type: functional, organism-based
Spodoptera litura [5] = experiment: Insecticidal activity against fifth-instar larvae of Spodoptera litura assessed as thickening and shortening without convulsion at 100 mg/l after 24 hr; type: functional, organism-based
Pardosa pseudoannulata = experiment: Toxicity in adult of Pardosa pseudoannulata after 4 days by insect dipping method; type: organism-based; conditions: in vivo, 96 h
Adoxophyes honmai = experiment: Insecticidal activity against fourth-instar larvae of Adoxophyes honmai in tea leaf; type: functional, organism-based
Spodoptera litura [6] = experiment: Insecticidal activity against sixth-instar larvae of Spodoptera litura assessed as sustained body contraction at 0.24 ug/larvae after 24 hr; type: functional, organism-based
Phytoseiulus persimilis = experiment: Toxicity in adult of Phytoseiulus persimilis after 2 days by spraying on food and insect method; type: organism-based; conditions: in vivo, 48 h
Encarsia formosa = experiment: Toxicity in adult Encarsia formosa after 2 days by dry film method; type: organism-based; conditions: in vivo, 48 h
Neoseiulus cucumeris = experiment: Toxicity in adlult of Neoseiulus cucumeris after 2 days by spraying on food and insect method; type: organism-based; conditions: in vivo, 48 h
Chilo suppressalis = experiment: Insecticidal activity against third-instar larvae of Chilo suppressalis (rice stem borer) […]; type: functional, organism-based
Autographa nigrisigna = experiment: Insecticidal activity against third-instar larvae of Autographa nigrisigna in cabbage leaf; type: functional, organism-based
Orius strigicollis = experiment: Toxicity in adult of Orius strigicollis after 2 days by spraying on food and insect method; type: organism-based; conditions: in vivo, 48 h
Plutella xylostella [7] = experiment: Insecticidal activity against third-instar larvae of insecticide-resistant Plutella xylostella (diamondback moth) in cabbage leaf disk after 4 to 7 days by leaf dipping method; type: functional, organism-based
Cotesia glomerata = experiment: Toxicity in adult Cotesia glomerata after 2 days by dry film method; type: organism-based; conditions: in vivo, 48 h
Spodoptera litura [8] = experiment: Insecticidal activity against fifth-instar larvae of Spodoptera litura assessed as gradual contraction of insect body at 100 mg/l after 24 hr; type: functional, organism-based
Misumenops = experiment: Toxicity in adult of Misumenops tricuspidatus after 4 days by insect dipping method; type: organism-based; conditions: in vivo, 96 h
Harmonia axyridis = experiment: Toxicity in adult of Harmonia axyridis after 4 days by insect dipping method; type: organism-based; conditions: in vivo, 96 h
Hellula undalis = experiment: Insecticidal activity against third-instar larvae of Hellula undalis in cabbage leaf; type: functional, organism-based
Aphidoletes aphidimyza = experiment: Toxicity in larvae of Aphidoletes aphidimyza after 2 days by spraying on food and insect method; type: organism-based; conditions: in vivo, 48 h
[9] = system: Coccinella septempunctata brucki; experiment: Toxicity in adult of Coccinella septempunctata brucki after 4 days by insect dipping method; type: organism-based; conditions: in vivo, 96 h
Chrysoperla carnea = experiment: Toxicity in larvae of Chrysoperla carnea after 2 days by spraying on food and insect method; type: organism-based; conditions: in vivo, other, 48 h
Homona magnanima = experiment: Insecticidal activity against fourth-instar larvae of Homona magnanima in tea leaf; type: functional, organism-based
Plutella xylostella [10] = experiment: Insecticidal activity against third-instar larvae of benzoylphenylurea-resistant Plutella xylostella (diamondback moth) in cabbage leaf disk after 4 to 7 days by leaf dipping method; type: functional, organism-based
Plutella xylostella [11] = experiment: Insecticidal activity against third-instar larvae of carbamate-resistant Plutella xylostella (diamondback moth) in cabbage leaf disk after 4 to 7 days by leaf dipping method; type: functional, organism-based
Plutella xylostella [12] = experiment: Insecticidal activity against third-instar larvae of organophosphate-resistant Plutella xylostella (diamondback moth) in cabbage leaf disk after 4 to 7 days by leaf dipping method; type: functional, organism-based

In the case of Cc1cc(C(F)(C(F)(F)F)C(F)(F)F)ccc1NC(=O)c1cccc(I)c1C(=O)NC(C)C, the EC50 (Plutella xylostella [1]) is reported as 0.1 mgAi/L and the EC50 (Spodoptera litura [2]) is reported as 0.3 mgAi/L.

With Cc1cc(OC(F)(F)F)ccc1NC(=O)c1cccc(I)c1C(=O)NC(C)C the EC50 (Plutella xylostella [1]) was 0.3 mgAi/L and the EC50 (Spodoptera litura [2]) was 1 mgAi/L.

Cc1cc(Cl)ccc1NC(=O)c1cccc(Br)c1C(=O)NC(C)C showed an EC50 (Plutella xylostella [1]) of 1 mgAi/L and an EC50 (Spodoptera litura [2]) of 10 mgAi/L.

With Cc1cc(Cl)ccc1NC(=O)c1ccccc1C(=O)NC(C)C the EC50 (Plutella xylostella [1]) was 3 mgAi/L and the EC50 (Spodoptera litura [2]) was 10 mgAi/L.

For Cc1cc(Cl)ccc1NC(=O)c1cccc([N+](=O)[O-])c1C(=O)NC(C)C, the EC50 (Plutella xylostella [1]) was 10 mgAi/L and the EC50 (Spodoptera litura [2]) was 10 mgAi/L.

Work on Cc1cc(Cl)ccc1NC(=O)c1cccc(Cl)c1C(=O)NC(C)C yielded an EC50 (Plutella xylostella [1]) of 1 mgAi/L and an EC50 (Spodoptera litura [2]) of 10 mgAi/L.

For Cc1cc(Cl)ccc1NC(=O)c1ccc(Cl)cc1C(=O)NC(C)C, the EC50 (Plutella xylostella [1]) was 5 mgAi/L and the EC50 (Spodoptera litura [2]) was > 500 mgAi/L.

Cc1cc(Cl)ccc1NC(=O)c1cc(Cl)ccc1C(=O)NC(C)C was tested, and the EC50 (Plutella xylostella [1]) was 50 mgAi/L and the EC50 (Spodoptera litura [2]) was > 500 mgAi/L.

For Cc1cc(Cl)ccc1NC(=O)c1c(Cl)cccc1C(=O)NC(C)C, the EC50 (Plutella xylostella [1]) was 10 mgAi/L and the EC50 (Spodoptera litura [2]) was > 500 mgAi/L.

With Cc1cc(Cl)ccc1NC(=O)c1cccc(F)c1C(=O)NC(C)C the EC50 (Plutella xylostella [1]) was 1 mgAi/L and the EC50 (Spodoptera litura [2]) was > 500 mgAi/L.

In the case of Cc1cc(Cl)ccc1NC(=O)c1cccc(I)c1C(=O)NC(C)C, the EC50 (Plutella xylostella [1]) is reported as 0.3 mgAi/L and the EC50 (Spodoptera litura [2]) is reported as 3 mgAi/L.

Work on Cc1c(Cl)cccc1NC(=O)c1cccc(I)c1C(=O)NC(C)C yielded an EC50 (Plutella xylostella [1]) of 3 mgAi/L and an EC50 (Spodoptera litura [2]) of 10 mgAi/L.

Work on Cc1ccc(Cl)cc1NC(=O)c1cccc(I)c1C(=O)NC(C)C yielded an EC50 (Plutella xylostella [1]) of 3 mgAi/L and an EC50 (Spodoptera litura [2]) of 10 mgAi/L.

COc1ccc(NC(=O)c2cccc(I)c2C(=O)NC(C)C)c(C)c1 was tested, and the EC50 (Plutella xylostella [1]) was 10 mgAi/L and the EC50 (Spodoptera litura [2]) was 30 mgAi/L.

With Cc1cc(C(F)(C(F)(F)F)C(F)(F)F)ccc1NC(=O)c1cccc(I)c1C(=O)NC(C)(C)C the EC50 (Plutella xylostella [1]) was 0.3 mgAi/L and the EC50 (Spodoptera litura [2]) was 0.3 mgAi/L.

Work on CC(=O)NCC(C)(C)NC(=O)c1c(I)cccc1C(=O)Nc1ccc(C(F)(C(F)(F)F)C(F)(F)F)cc1C yielded an EC50 (Spodoptera litura [2]) of 0.1 mgAi/L.

CC(C)[C@@]1(O)[C@@H](OC(=O)c2cc[nH]c2)[C@@]2(O)[C@]3(C)C[C@@]4(O)O[C@@]5([C@H](O)[C@@H](C)CC[C@]35O)[C@@]2(O)[C@@]41C was tested, and the Activity (Spodoptera litura [3]) was “Active”.

CC1(C)C(/C=C(\Cl)C(F)(F)F)C1C(=O)OC(C#N)c1cccc(Oc2ccccc2)c1 (stereo unspecified) [CYHALOTHRIN] gave an EC50 (Plutella xylostella [1]) of 0.24 mgAi/L and an EC50 (Plutella xylostella [4]) of 869 mgAi/L.

For Cc1cc(C(F)(C(F)(F)F)C(F)(F)F)ccc1NC(=O)c1cccc(I)c1C(=O)NC(C)(C)CS(C)(=O)=O [FLUBENDIAMIDE], the EC30 (Aphidius colemani) was > 400 mgAi/L, the EC50 (Pieris rapae crucivora) was 0.03 mgAi/L and the EC50 (Agrotis segetum) was 0.18 mgAi/L. The Activity (Helicoverpa armigera) was “Active”, the Activity (Spodoptera litura [5]) was “Active” and the EC30 (Pardosa pseudoannulata) was > 100 mgAi/L. The EC50 (Adoxophyes honmai) was 0.38 mgAi/L, the Activity (Spodoptera litura [6]) was “Active” and the EC30 (Phytoseiulus persimilis) was > 200 mgAi/L. The EC30 (Encarsia formosa) was > 400 mgAi/L, the EC30 (Neoseiulus cucumeris) was > 200 mgAi/L and the EC50 (Chilo suppressalis) was < 0.01 mgAi/L. For the same molecule, the EC50 (Plutella xylostella [1]) was 0.001 mgAi/L, the EC50 (Autographa nigrisigna) was 0.02 mgAi/L and the EC30 (Orius strigicollis) was > 100 mgAi/L. The EC50 (Plutella xylostella [7]) was 0.002 mgAi/L, the EC30 (Cotesia glomerata) was > 100 mgAi/L and the Activity (Spodoptera litura [8]) was “Active”. For the same molecule, the EC30 (Misumenops) was > 200 mgAi/L, the EC30 (Harmonia axyridis) was > 200 mgAi/L and the EC50 (Hellula undalis) was 0.01 mgAi/L. The EC30 (Aphidoletes aphidimyza) was > 100 mgAi/L, the EC30 [9] was > 200 mgAi/L and the EC30 (Chrysoperla carnea) was > 100 mgAi/L. The EC50 (Homona magnanima) was 0.58 mgAi/L and the EC50 (Spodoptera litura [2]) was 0.03 mgAi/L.

In the case of O=C(NC(=O)c1c(F)cccc1F)Nc1ccc(Oc2ccc(C(F)(F)F)cc2Cl)cc1F [FLUFENOXURON], the EC50 (Plutella xylostella [1]) is reported as 0.05 mgAi/L and the EC50 (Plutella xylostella [10]) is reported as 233 mgAi/L.

With CNC(=O)ON=C(C)SC [METHOMYL] the EC50 (Plutella xylostella [1]) was 14.5 mgAi/L and the EC50 (Plutella xylostella [11]) was 287 mgAi/L.

CCCSP(=S)(OCC)Oc1ccc(Cl)cc1Cl (stereo unspecified) [PROTHIOFOS] showed an EC50 (Plutella xylostella [12]) of 24.2 mgAi/L and an EC50 (Plutella xylostella [1]) of 3.78 mgAi/L.
